Data on 14 compounds can be found in PubChem BioAssay (NCI).

Common to all, as to experiment: NCI-60 cell line screen, 48 h
Assay [1] has as its system BT-549 breast.
Assay [2] relates to CCRF-CEM leukemia.
The test system of assay [3] is HCT-116 colon.
Assay [4] deals with HOP-62 NSCLC.
Assay [5] has as its system LOX IMVI melanoma.
The test system of assay [6] is NCI-H226 lung.
Assay [7] relates to NCI-H23 lung.
For assay [8], the system named is NCI-H460 lung.
The test system of assay [9] is SK-MEL-28 melanoma.
In assay [10] the test system is U251 CNS.

SMILES strings stand for the structures.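 Values below derive from 48-hour exposures of cells grown in 96-well plates, with endpoints linearly interpolated between the two concentrations bracketing the appropriate inhibition level. The concentration for 50% growth inhibition is given as GI50. TGI denotes the concentration required for complete inhibition of growth.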

`CC(C)(C)c1[nH]nc2c1C(c1cc3ccccc3[nH]c1=O)Nc1cc(C(=O)OCc3ccccc3)ccc1N2` (centres undefined): the GI50 is 3.35 µM in assay [1]; 3.23 µM in [2]; 3.2 µM in [3]; 6.37 µM in assay [4]; 3.35 µM in [5]; 3.2 µM in assay [6]. Also, the GI50 in assay [7] was 5.14 µM; in assay [8], 3.14 µM; in assay [9], 2.44 µM; in assay [10], 3.41 µM. The TGI in assay [1], in assay [2], in assay [3], in [4], in assay [5] and in assay [6] was above 100 µM each time. The TGI in assay [7] was above 100 µM; in assay [8], above 100 µM; in [9], 6.43 µM; in assay [10] it was above 100 µM.
`Nc1ncnc2c1c(-c1ccc(Oc3ccccc3)cc1)nn2C[C@@H]1SSC[C@H]1O`: the GI50 in assay [1] was 3.58 µM; in assay [2] it was 0.278 µM; in assay [3] it was 0.364 µM; in [4], 0.797 µM; in assay [5], 0.272 µM; in [6], 1.69 µM. The GI50 in assay [7] was 0.916 µM; in [8], 0.281 µM; in assay [9] it was 0.084 µM; in assay [10], 2.48 µM. In addition, the TGI was 11.6 µM in [1]; above 100 µM in [2]; 5.23 µM in assay [3]; 6.74 µM in [4]; 1.74 µM in [5]; 4.7 µM in assay [6]. Moreover, the TGI in assay [7] turned out to be 8.17 µM; in assay [8] it was 1.45 µM; in assay [9] it was 12 µM; in [10] it was 8.21 µM.
Take `COc1ccc(/C=C(\C(=O)NCc2cccnc2)S(=O)(=O)c2ccccc2)cc1OC`: the GI50 in [1] is 2.45 µM; in assay [2] it was 2.26 µM; in [3], 2.11 µM; in assay [4], 3.51 µM; in [5] it was 3.09 µM; in assay [6], 3.13 µM. The GI50 in [7] is 3.01 µM; in assay [8] it was 2.4 µM; in assay [9] it was 3.06 µM; in assay [10], 3.09 µM. Further, the TGI in [1] stood at 6.69 µM; in [2], 15.8 µM; in assay [3] it was 6.12 µM; in [4] it was 11.4 µM; in assay [5], 11.8 µM; in assay [6], 10.7 µM. Also, the TGI was 10.6 µM in assay [7], 6.67 µM in [8], 10.5 µM in [9] and 14 µM in assay [10].
Turning to `COC(=O)C1=C(C)NC(C)=C(C(=O)OCC(C)C)C1c1ccccc1[N+](=O)[O-]` (centres undefined), the GI50 is 5.06 µM in [1]; 2.45 µM in [2]; 3.02 µM in assay [3]; 5.24 µM in [4]; 3.07 µM in assay [5]; 3.75 µM in [6]. The GI50 is 3.47 µM in [7], 3.6 µM in assay [8], 4.18 µM in [9] and 4.27 µM in [10]. The TGI was found to be 17.1 µM in [1]; 11.3 µM in [2]; 12.1 µM in [3]; 18.4 µM in [4]; 16.6 µM in assay [5]; 15.1 µM in [6]. The TGI came out at 16.5 µM in assay [7], 15.2 µM in assay [8], 15.2 µM in assay [9] and 17.6 µM in assay [10].
As to `C#CCNCCN1C(=O)c2ccc3c4c(ccc(c24)C1=O)C(=O)N(CCNCC#C)C3=O`, the GI50 in assay [1] is 7.27 µM; in assay [2], 5.19 µM; in [3], 1.75 µM; in assay [4], 4.1 µM; in [5] it was 1.76 µM; in [6] it was 2.96 µM. Besides, the GI50 in [7] is 3.56 µM; in assay [8] it was 1.86 µM; in assay [9] it was 10.4 µM; in assay [10], 3.3 µM. Besides, the TGI in assay [1] worked out at 14.7 µM; in [2], 25 µM; in assay [3], 11.1 µM; in [4] it was 14.9 µM; in [5], 8.08 µM; in [6], 12.2 µM. Also, the TGI in assay [7] came out at 15.6 µM; in assay [8] it was 9.68 µM; in assay [9], 27.6 µM; in [10], 10.9 µM.
Take `O=C(Nc1ccc(Oc2cccc(F)c2)c(Cl)c1)c1cnccn1`: the GI50 in assay [1] was 2.18 µM; in assay [2], 1.3 µM; in assay [3], 0.596 µM; in assay [4] it was 0.973 µM; in [5] it was 1.69 µM; in assay [6] it was 2.6 µM. The GI50 in assay [7] was 3 µM; in [8] it was 1.79 µM; in assay [9], 28.6 µM; in assay [10] it was 1.51 µM. Besides, the TGI in assay [1], in assay [2], in [3], in assay [4], in assay [5] and in assay [6] was above 50 µM each time. In addition, the TGI in assay [7], in assay [8], in assay [9] and in assay [10] was above 50 µM each time.
For the compound `CCOC(=O)c1cc2c(n1Cc1cc(OC)c(OC)c(OC)c1)-c1oncc1CCC2`, the GI50 in assay [1] is 0.647 µM; in [2], 0.318 µM; in assay [3] it was 0.235 µM; in [4], 0.447 µM; in assay [5], 0.401 µM; in assay [6] it was 1.27 µM. For the same compound, the GI50 in assay [7] was 0.388 µM; in [8] it was 0.284 µM; in [9], 0.255 µM; in assay [10], 0.214 µM. The TGI was 22 µM in [1]; 5.38 µM in assay [2]; above 100 µM in [3]; 37.2 µM in assay [4]; above 35.7 µM in [5]; above 53 µM in [6]. Also, the TGI in assay [7] is above 43.2 µM; in [8], 13.7 µM; in assay [9], above 54.5 µM; in assay [10], 5.01 µM.
In the case of `O1[As]2O[As]3O[As]1O[As](O2)O3`, the GI50 in [1] was 0.278 µM; in [2] it was 0.161 µM; in assay [3] it was 1.27 µM; in [4] it was 1 µM; in assay [5], 0.657 µM; in [6], 1.01 µM. Also, the GI50 was 0.733 µM in assay [7], 2.03 µM in assay [8], 1.02 µM in assay [9] and 0.294 µM in assay [10]. The TGI in assay [1] was 0.903 µM; in assay [2], 1.11 µM; in assay [3], 2.8 µM; in [4], 2.55 µM; in [5], 2.13 µM; in [6], 4.64 µM. Further, the TGI in assay [7] was found to be 4.98 µM; in assay [9], 2.45 µM; in assay [10] it was 1.25 µM.
As to `Cc1cnc(CNC(=O)c2c(=O)c3ccc(N4CCCN(C)CC4)nc3n3c2sc2ccccc23)cn1`, the GI50 in assay [1] was 12.6 µM; in [2] it was 1.96 µM; in [3], 0.806 µM; in assay [4], 7.16 µM; in assay [5], 0.331 µM; in assay [6], 7.44 µM. For the same compound, the GI50 in [7] is 0.922 µM; in [8], 0.162 µM; in assay [9] it was 14.8 µM; in assay [10], 3 µM. Besides, the TGI in assay [1] turned out to be 28.4 µM; in assay [2], 19.9 µM; in assay [3], 2.76 µM; in assay [4], 25.4 µM; in assay [5], 2.05 µM; in assay [6], 30.8 µM. Moreover, the TGI in [7] was 6.1 µM; in [8] it was 2.14 µM; in assay [9], 30.5 µM; in [10] it was 7.37 µM.
`C=C1c2ccoc2C[C@H]2[C@H]1CC[C@@]1(O)[C@@](C)(C(=O)OC)CCC[C@]21C`: the GI50 was 26 µM in [1]; 23.5 µM in [2]; 15.7 µM in [3]; 40.7 µM in assay [4]; 17.6 µM in [5]; 18.1 µM in assay [6]. The GI50 in [7] is 44.4 µM; in assay [8], 18 µM; in assay [9], 54.2 µM; in [10] it was 42.4 µM. Further, the TGI in [1] was 60.3 µM; in assay [2] it was 60.1 µM; in [3] it was 31.2 µM; in assay [4], above 100 µM; in assay [5] it was 36.7 µM; in [6], 56.2 µM. The TGI is above 100 µM in assay [7], 49.9 µM in [8], above 100 µM in assay [9] and above 100 µM in assay [10].
As to `CCN1C(=O)N(CC)C2C1NN=c1s/c(=C\c3ccccn3)c(=O)n12` (centres undefined), the GI50 in assay [1] is 3.99 µM; in [2] it was 1.53 µM; in [3], 0.825 µM; in [4], 2.91 µM; in assay [5], 5.71 µM; in [6] it was 3.07 µM. Moreover, the GI50 in assay [7] is 3.82 µM; in assay [8], 2.07 µM; in assay [9], 4.95 µM; in assay [10] it was 2.96 µM. For the same compound, the TGI in assay [1], in [2], in assay [3], in [4], in assay [5] and in assay [6] was above 100 µM throughout. In addition, the TGI in assay [7], in assay [8], in assay [9] and in [10] was above 100 µM in each case.
As to `CC1=C(CCC(C)NCc2ccc(OCCCN3CCCCC3)cc2)C(C)(C)CCC1` (centres undefined), the GI50 is 2.08 µM in assay [1]; 1.54 µM in assay [2]; 1.53 µM in [3]; 1.84 µM in assay [4]; 1.44 µM in [5]; 3.82 µM in [6]. The GI50 in assay [7] was 1.73 µM; in assay [8], 1.53 µM; in assay [9], 1.38 µM; in assay [10], 1.57 µM. For the same compound, the TGI in assay [1] stood at 3.89 µM; in assay [2], 4.7 µM; in assay [3], 3.13 µM; in assay [4] it was 3.64 µM; in [5], 2.85 µM; in [6], 16.5 µM. For the same compound, the TGI in [7] was determined as 3.82 µM; in assay [8] it was 3.28 µM; in [9], 2.83 µM; in [10], 3.28 µM.
Consider `N#Cc1nc2c(S(=O)(=O)c3ccc(Cl)cc3)c(N)n(CCCN3CCOCC3)c2nc1C#N`, for which the GI50 in assay [1] is 5.75 µM; in assay [2] it was 2.19 µM; in assay [3] it was 3.11 µM; in assay [4], 15.2 µM; in [5], 4.76 µM; in [6], 2.87 µM. Moreover, the GI50 in [7] is 7.41 µM; in assay [8] it was 15.8 µM; in assay [9] it was 4.11 µM; in [10], 10.8 µM. The TGI in [1] is 42 µM; in assay [2], 6.28 µM; in assay [3], 13.6 µM; in [4], 51.3 µM; in assay [5], 17.3 µM; in [6] it was 13.5 µM. Also, the TGI in assay [7] stood at 42.7 µM; in assay [8] it was 40.9 µM; in assay [9] it was 15.7 µM; in assay [10], 26.7 µM.
As to `COC(=O)Nc1nc2ccc(Oc3cccc(NC(=O)Nc4cc(C(F)(F)F)ccc4F)c3)cc2[nH]1`, the GI50 in [1] was 23 µM; in assay [2] it was 10.1 µM; in assay [3], 7.71 µM; in [4], 13.3 µM; in assay [5], 9.08 µM; in assay [6] it was above 15.3 µM. Moreover, the GI50 in assay [7] is 11.3 µM; in [8] it was 11.4 µM; in assay [9], 11.3 µM; in [10], 15.4 µM. For the same compound, the TGI in assay [1], in [2], in assay [3], in assay [4], in assay [5] and in assay [6] was above 25 µM throughout. Also, the TGI in [7], in assay [8], in assay [9] and in assay [10] was above 25 µM throughout.
